Laboratory results published in PubChem BioAssay AID248 (DTP/NCI, 2004).
Where “and” joins values, the source holds several entries; their conditions need not be identical. Equal entries are not always repeated. Toxic doses and inconclusive results are not listed. No stated cut-off is given here; in the data, active means T/C of 150% or more; inactive means T/C below 125%.

Tested on: L1210 leukemia ip in BDF1 mice, survival T/C
Assay: NCI In Vivo Anticancer Drug Screen. Data for tumor model L1210 Leukemia (intraperitoneal) in B6D2F1 (BDF1) mice
Conditions: endpoint: mean survival time, higher = longer survival
Summary of the method: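 Read-out is survival time, reported as the treated-group measurement over the vehicle-control measurement.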

[1] = dose: 50.0 mg/kg/injection, schedule: Q01DX001 (ip), vehicle: saline
[2] = dose: 100.0 mg/kg/injection, schedule: Q01DX001 (ip), vehicle: saline
[3] = dose: 200.0 mg/kg/injection, schedule: Q01DX001 (ip), vehicle: saline
[4] = dose: 100.0 mg/kg/injection, schedule: Q04DX003 (ip), vehicle: Klucel (hydroxypropylcellulose) (HPC)
[5] = dose: 200.0 mg/kg/injection, schedule: Q04DX003 (ip), vehicle: Klucel (hydroxypropylcellulose) (HPC)
[6] = dose: 400.0 mg/kg/injection, schedule: Q04DX003 (ip), vehicle: Klucel (hydroxypropylcellulose) (HPC)
[7] = dose: 50.0 mg/kg/injection, schedule: Q01DX001 (ip), vehicle: carboxymethylcellulose (CMC)
[8] = dose: 100.0 mg/kg/injection, schedule: Q01DX001 (ip), vehicle: carboxymethylcellulose (CMC)
[9] = dose: 400.0 mg/kg/injection, schedule: Q01DX001 (ip), vehicle: carboxymethylcellulose (CMC)
[10] = dose: 100.0 mg/kg/injection, schedule: Q01DX009 (ip), vehicle: Klucel (hydroxypropylcellulose) (HPC)
[11] = dose: 100.0 mg/kg/injection, schedule: Q04DX003 (ip), vehicle: saline with Tween-80
[12] = dose: 200.0 mg/kg/injection, schedule: Q01DX009 (ip), vehicle: Klucel (hydroxypropylcellulose) (HPC)
[13] = dose: 200.0 mg/kg/injection, schedule: Q04DX003 (ip), vehicle: saline with Tween-80
[14] = dose: 400.0 mg/kg/injection, schedule: Q01DX009 (ip), vehicle: Klucel (hydroxypropylcellulose) (HPC)
[15] = dose: 400.0 mg/kg/injection, schedule: Q04DX003 (ip), vehicle: saline with Tween-80
[16] = dose: 200.0 mg/kg/injection, schedule: Q01DX001 (ip), vehicle: saline with Tween-80

Measured: T/C

CCCCCCOC(CN)C(Cl)(Cl)Cl (stereo not given)
inactive: dose: 12.5 mg/kg/injection, schedule: Q04DX003 (ip), vehicle: saline with Tween-80 107 % of control | dose: 25.0 mg/kg/injection, schedule: Q01DX009 (ip), vehicle: saline with Tween-80 116 % of control | dose: 25.0 mg/kg/injection, schedule: Q04DX003 (ip), vehicle: saline with Tween-80 109 % of control | dose: 50.0 mg/kg/injection, schedule: Q01DX009 (ip), vehicle: saline with Tween-80 97 % of control | dose: 50.0 mg/kg/injection, schedule: Q04DX003 (ip), vehicle: saline with Tween-80 102 % of control

O=P(c1ccccc1)(c1ccccc1)c1ccccc1
inactive: [1] 102 % of control | [2] 98 % of control | [3] 98 % of control

COC(=O)C1=CCC(C2(C)CO2)CC1 (stereo not given)
inactive: [4] 104 % of control | [5] 109 % of control | [6] 104 % of control

CCCC[As](=O)(O)CCCc1ccccc1
inactive: dose: 0.78 mg/kg/injection, schedule: Q01DX009 (ip), vehicle: saline 97 % of control | dose: 1.56 mg/kg/injection, schedule: Q01DX009 (ip), vehicle: saline 100 % of control | dose: 3.13 mg/kg/injection, schedule: Q01DX009 (ip), vehicle: saline 103 % of control

O=C(ON(Cc1ccccc1)Cc1ccccc1)c1ccccc1
inactive: dose: 100.0 mg/kg/injection, schedule: Q01DX001 (ip), vehicle: other 103 % of control | dose: 200.0 mg/kg/injection, schedule: Q01DX001 (ip), vehicle: other 100 % of control | dose: 400.0 mg/kg/injection, schedule: Q01DX001 (ip), vehicle: other 103 % of control

Nc1nc(N)nc(CCCCCc2nc(N)nc(N)n2)n1
inactive: [7] 93 % of control | [8] 93 % of control | [9] 95 % of control

CCCCC(O)CCC (stereo not given)
inactive: [10] 96 % of control | dose: 100.0 mg/kg/injection, schedule: Q01DX009 (ip), vehicle: saline with Tween-80 98 % of control | [4] 98 % of control | [11] 100 % of control | [12] 107 % of control | dose: 200.0 mg/kg/injection, schedule: Q01DX009 (ip), vehicle: saline with Tween-80 95 % of control | [5] 93 % of control | [13] 98 % of control | [14] 95 % of control | dose: 400.0 mg/kg/injection, schedule: Q01DX009 (ip), vehicle: saline with Tween-80 91 % of control | [6] 93 % of control | [15] 98 % of control

O=S(=O)(O)c1ccc(-c2nc3ccccc3[nH]2)cc1
inactive: [1] 104 % of control | [2] 98 % of control | [10] 101 % of control | [4] 95 % of control | [3] 93 % of control | [12] 96 % of control | [5] 103 % of control | dose: 400.0 mg/kg/injection, schedule: Q01DX001 (ip), vehicle: saline 95 % of control | [14] 96 % of control | [6] 98 % of control

O=C(COc1ccc(Cl)c(Cl)c1)NCc1ccc[n+](Cc2ccc(S(=O)(=O)F)cc2)c1
inactive: dose: 25.0 mg/kg/injection, schedule: Q04DX003 (ip), vehicle: Klucel (hydroxypropylcellulose) (HPC) 106 % of control | dose: 50.0 mg/kg/injection, schedule: Q04DX003 (ip), vehicle: Klucel (hydroxypropylcellulose) (HPC) 101 % of control | [4] 94 % of control and 101 % of control

CCCC1(CCC)NC(=O)N(CC(N)=O)C1=O
inactive: [11] 100 % of control | [13] 102 % of control | [15] 98 % of control

Nc1ccc([As](=O)(O)O)cc1
inactive: dose: 25.0 mg/kg/injection, schedule: Q01DX009 (ip), vehicle: saline 102 % of control | dose: 50.0 mg/kg/injection, schedule: Q01DX009 (ip), vehicle: saline 102 % of control | dose: 100.0 mg/kg/injection, schedule: Q01DX009 (ip), vehicle: saline 94 % of control and 104 % of control | dose: 100.0 mg/kg/injection, schedule: Q04DX002 (ip), vehicle: saline 91 % of control | dose: 200.0 mg/kg/injection, schedule: Q04DX002 (ip), vehicle: saline 102 % of control | dose: 400.0 mg/kg/injection, schedule: Q04DX002 (ip), vehicle: saline 87 % of control

CCOc1cc(/C=N\Nc2nncn2N)ccc1N(CCCl)CCCl
inactive: dose: 0.5 mg/kg/injection, schedule: Q01DX015 (ip), vehicle: carboxymethylcellulose (CMC) 109 % of control | dose: 1.0 mg/kg/injection, schedule: Q01DX015 (ip), vehicle: carboxymethylcellulose (CMC) 111 % of control | dose: 2.0 mg/kg/injection, schedule: Q01DX015 (ip), vehicle: carboxymethylcellulose (CMC) 116 % of control | dose: 4.0 mg/kg/injection, schedule: Q01DX015 (ip), vehicle: carboxymethylcellulose (CMC) 101 % of control and 109 % of control | dose: 5.0 mg/kg/injection, schedule: Q01DX001 (ip), vehicle: carboxymethylcellulose (CMC) 98 % of control and 117 % of control | dose: 7.0 mg/kg/injection, schedule: Q01DX015 (ip), vehicle: carboxymethylcellulose (CMC) 107 % of control and 90 % of control | dose: 10.0 mg/kg/injection, schedule: Q01DX001 (ip), vehicle: carboxymethylcellulose (CMC) 101 % of control | dose: 12.0 mg/kg/injection, schedule: Q01DX015 (ip), vehicle: carboxymethylcellulose (CMC) 98 % of control and 117 % of control | dose: 20.0 mg/kg/injection, schedule: Q01DX001 (ip), vehicle: carboxymethylcellulose (CMC) 95 % of control and 106 % of control | dose: 20.0 mg/kg/injection, schedule: Q01DX015 (ip), vehicle: carboxymethylcellulose (CMC) 120 % of control | dose: 40.0 mg/kg/injection, schedule: Q01DX001 (ip), vehicle: carboxymethylcellulose (CMC) 106 % of control

CCCCCCCCCCCCCCCC/C(C)=C\C(=O)OC
inactive: dose: 100.0 mg/kg/injection, schedule: Q04DX003 (ip), vehicle: other 93 % of control | dose: 200.0 mg/kg/injection, schedule: Q04DX003 (ip), vehicle: other 93 % of control | dose: 400.0 mg/kg/injection, schedule: Q04DX003 (ip), vehicle: other 93 % of control

CCC1(O)C(=O)OCc2c1c(Br)c(-c1ccccc1)n(C)c2=O (stereo not given)
inactive: dose: 25.0 mg/kg/injection, schedule: Q01DX001 (ip), vehicle: saline with Tween-80 110 % of control | dose: 50.0 mg/kg/injection, schedule: Q01DX001 (ip), vehicle: saline with Tween-80 102 % of control | [16] 121 % of control

NC(=S)N/N=C/c1ccc(C2CCNCC2)cc1
inactive: dose: 15.0 mg/kg/injection, schedule: Q01DX Z (ip), vehicle: methylcellulose (MC) 102 % of control | dose: 30.0 mg/kg/injection, schedule: Q01DX Z (ip), vehicle: methylcellulose (MC) 92 % of control | dose: 60.0 mg/kg/injection, schedule: Q01DX Z (ip), vehicle: methylcellulose (MC) 104 % of control | dose: 120.0 mg/kg/injection, schedule: Q01DX Z (ip), vehicle: methylcellulose (MC) 104 % of control

Cc1c(Cl)c(Cl)c(NS(=O)(=O)c2ccccc2)c(NS(=O)(=O)c2ccccc2)c1Cl
inactive: [10] 95 % of control | [12] 103 % of control | [14] 100 % of control

CC(=O)Nc1ccc(C(=O)O)c(OC(C)=O)c1
inactive: dose: 100.0 mg/kg/injection, schedule: Q01DX001 (ip), vehicle: saline with Tween-80 92 % of control | [16] 96 % of control | dose: 400.0 mg/kg/injection, schedule: Q01DX001 (ip), vehicle: saline with Tween-80 97 % of control

COc1ccc(Cl)cc1NC(=O)Nc1nccs1
inactive: [10] 98 % of control | [4] 101 % of control | [12] 92 % of control | [5] 97 % of control | [6] 95 % of control

CC1(NO)CCCCC1
inactive: dose: 100.0 mg/kg/injection, schedule: Q01DX001 (ip), vehicle: Klucel (hydroxypropylcellulose) (HPC) 100 % of control | dose: 200.0 mg/kg/injection, schedule: Q01DX001 (ip), vehicle: Klucel (hydroxypropylcellulose) (HPC) 94 % of control

C(COC1CC2CC1C1C2CC2OC21)OC1CC2CC1C1C2CC2OC21 (stereo not given)
inactive: [7] 96 % of control | [8] 98 % of control | dose: 200.0 mg/kg/injection, schedule: Q01DX001 (ip), vehicle: carboxymethylcellulose (CMC) 96 % of control | [9] 102 % of control

O=C(O)c1ccc(CCCCBr)cc1
inactive: dose: 100.0 mg/kg/injection, schedule: Q04DX002 (ip), vehicle: Klucel (hydroxypropylcellulose) (HPC) 96 % of control | dose: 200.0 mg/kg/injection, schedule: Q04DX002 (ip), vehicle: Klucel (hydroxypropylcellulose) (HPC) 100 % of control | dose: 400.0 mg/kg/injection, schedule: Q04DX002 (ip), vehicle: Klucel (hydroxypropylcellulose) (HPC) 96 % of control
